Assay results published in ChEMBL document CHEMBL1949518, “Synthesis and biological evaluation of some new 2-pyrazolines bearing benzene sulfonamide moiety as potential anti-inflammatory and anti-cancer agents” (Eur J Med Chem, 2011).

Experiments:
Assay type in all cases: functional
SK-MEL-28 = assay: Antiproliferative activity against human SK-MEL-28 cells assessed as cell growth at 10^-5 M after 48 hrs by SRB assay relative to control; conditions: SK-MEL-28, 48 h, read-out: Activity
U-251 = assay: Antiproliferative activity against human U251 cells assessed as cell growth at 10^-5 M after 48 hrs by SRB assay relative to control; conditions: U-251, 48 h, read-out: Activity
SK-MEL-5 = assay: Antiproliferative activity against human SK-MEL-5 cells assessed as cell growth at 10^-5 M after 48 hrs by SRB assay relative to control; conditions: SK-MEL-5, 48 h, read-out: Activity
NCI-H226 = assay: Antiproliferative activity against human NCI-H226 cells assessed as cell growth at 10^-5 M after 48 hrs by SRB assay relative to control; conditions: NCI-H226, 48 h, read-out: Activity
UACC-257 = assay: Antiproliferative activity against human UACC257 cells assessed as cell growth at 10^-5 M after 48 hrs by SRB assay relative to control; conditions: UACC-257, 48 h, read-out: Activity
NCI/ADR-RES = assay: Antiproliferative activity against human NCI/ADR-RES cells assessed as cell growth at 10^-5 M after 48 hrs by SRB assay relative to control; conditions: read-out: Activity
RPMI-8226 = assay: Antiproliferative activity against human RPMI8226 cells assessed as cell growth at 10^-5 M after 48 hrs by SRB assay relative to control; conditions: RPMI-8226, 48 h, read-out: Activity
EKVX = assay: Antiproliferative activity against human EKVX cells assessed as cell growth at 10^-5 M after 48 hrs by SRB assay relative to control; conditions: read-out: Activity
SNB-75 = assay: Antiproliferative activity against human SNB75 cells assessed as cell growth at 10^-5 M after 48 hrs by SRB assay relative to control; conditions: SNB-75, 48 h, read-out: Activity
HT-29 = assay: Antiproliferative activity against human HT-29 cells assessed as cell growth at 10^-5 M after 48 hrs by SRB assay relative to control; conditions: HT-29, 48 h, read-out: Activity
MDA-MB-468 = assay: Antiproliferative activity against human MDA-MB-468 cells assessed as cell growth at 10^-5 M after 48 hrs by SRB assay relative to control; conditions: MDA-MB-468, 48 h, read-out: Activity
OVCAR-8 = assay: Antiproliferative activity against human OVCAR8 cells assessed as cell growth at 10^-5 M after 48 hrs by SRB assay relative to control; conditions: OVCAR-8, 48 h, read-out: Activity
OVCAR-3 = assay: Antiproliferative activity against human OVCAR3 cells assessed as cell growth at 10^-5 M after 48 hrs by SRB assay relative to control; conditions: OVCAR-3, 48 h, read-out: Activity
HL-60(TB) = assay: Antiproliferative activity against human HL-60(TB) cells assessed as cell growth at 10^-5 M after 48 hrs by SRB assay relative to control; conditions: HL-60, 48 h, read-out: Activity
SNB-19 = assay: Antiproliferative activity against human SNB19 cells assessed as cell growth at 10^-5 M after 48 hrs by SRB assay relative to control; conditions: SNB-19, 48 h, read-out: Activity
Malme-3M = assay: Antiproliferative activity against human MALME-3M cells assessed as cell growth at 10^-5 M after 48 hrs by SRB assay relative to control; conditions: read-out: Activity
LOX IMVI = assay: Antiproliferative activity against human LOXIMVI cells assessed as cell growth at 10^-5 M after 48 hrs by SRB assay relative to control; conditions: read-out: Activity
ACHN = assay: Antiproliferative activity against human ACHN cells assessed as cell growth at 10^-5 M after 48 hrs by SRB assay relative to control; conditions: read-out: Activity
OVCAR-4 = assay: Antiproliferative activity against human OVCAR4 cells assessed as cell growth at 10^-5 M after 48 hrs by SRB assay relative to control; conditions: OVCAR-4, 48 h, read-out: Activity
[1] = Antiproliferative activity against human Hs 578T cells assessed as cell growth at 10^-5 M after 48 hrs by SRB assay relative to control; conditions: read-out: Activity
UACC-62 = assay: Antiproliferative activity against human UACC62 cells assessed as cell growth at 10^-5 M after 48 hrs by SRB assay relative to control; conditions: UACC-62, 48 h, read-out: Activity
HOP-92 = assay: Antiproliferative activity against human HOP92 cells assessed as cell growth at 10^-5 M after 48 hrs by SRB assay relative to control; conditions: HOP-92, 48 h, read-out: Activity
HCC 2998 = assay: Antiproliferative activity against human HCC2998 cells assessed as cell growth at 10^-5 M after 48 hrs by SRB assay relative to control; conditions: HCC 2998, 48 h, read-out: Activity
K562 = assay: Antiproliferative activity against human K562 cells assessed as cell growth at 10^-5 M after 48 hrs by SRB assay relative to control; conditions: K562, 48 h, read-out: Activity
SN12C = assay: Antiproliferative activity against human SN12C cells assessed as cell growth at 10^-5 M after 48 hrs by SRB assay relative to control; conditions: read-out: Activity
OVCAR-5 = assay: Antiproliferative activity against human OVCAR5 cells assessed as cell growth at 10^-5 M after 48 hrs by SRB assay relative to control; conditions: OVCAR-5, 48 h, read-out: Activity
NCI-H460 = assay: Antiproliferative activity against human NCI-H460 cells assessed as cell growth at 10^-5 M after 48 hrs by SRB assay relative to control; conditions: NCI-H460, 48 h, read-out: Activity
HCT-116 = assay: Antiproliferative activity against human HCT116 cells assessed as cell growth at 10^-5 M after 48 hrs by SRB assay relative to control; conditions: HCT-116, 48 h, read-out: Activity
MOLT-4 = assay: Antiproliferative activity against human MOLT4 cells assessed as cell growth at 10^-5 M after 48 hrs by SRB assay relative to control; conditions: MOLT-4, 48 h, read-out: Activity
T47D = assay: Antiproliferative activity against human T47D cells assessed as cell growth at 10^-5 M after 48 hrs by SRB assay relative to control; conditions: read-out: Activity
DU-145 = assay: Antiproliferative activity against human DU145 cells assessed as cell growth at 10^-5 M after 48 hrs by SRB assay relative to control; conditions: DU-145, 48 h, read-out: Activity
CCRF-CEM = assay: Antiproliferative activity against human CCRF-CEM cells assessed as cell growth at 10^-5 M after 48 hrs by SRB assay relative to control; conditions: read-out: Activity
Rattus norvegicus = assay: Antiinflammatory activity in Wistar rat assessed as inhibition of carrageenan-induced paw edema at 20 mg/kg, po administered 30 mins before carrageenan challenge measured after 5 hrs
HOP-62 = assay: Antiproliferative activity against human HOP62 cells assessed as cell growth at 10^-5 M after 48 hrs by SRB assay relative to control; conditions: HOP-62, 48 h, read-out: Activity

Row | SMILES | growth at 10 µM (SK-MEL-28) | growth at 10 µM (U-251) | growth at 10 µM (SK-MEL-5) | growth at 10 µM (NCI-H226) | growth at 10 µM (UACC-257) | growth at 10 µM (NCI/ADR-RES) | growth at 10 µM (RPMI-8226) | growth at 10 µM (EKVX) | growth at 10 µM (SNB-75) | growth at 10 µM (HT-29) | growth at 10 µM (MDA-MB-468) | growth at 10 µM (OVCAR-8) | growth at 10 µM (OVCAR-3) | growth at 10 µM (HL-60(TB)) | growth at 10 µM (SNB-19) | growth at 10 µM (Malme-3M) | growth at 10 µM (LOX IMVI) | growth at 10 µM (ACHN) | growth at 10 µM (OVCAR-4) | growth at 10 µM [1] | also measured
1 | COc1ccc(C2CC(c3c(O)cc(C)c(Cl)c3C)=NN2c2ccc(S(N)(=O)=O)cc2)cc1 (configuration not stated) | 96.7% | 91.3% | 94.4% | 98.7% | 103% | 101% | 63.9% | 70.5% | 85.1% | 109% | 91.5% | 101% | 102% | 69.1% | 92.7% | 138% | 70.6% | 96.7% | 86.4% | 99% | growth at 10 µM (UACC-62): 74%; growth at 10 µM (HOP-92): 43.3%; growth at 10 µM (HCC 2998): 97.6%; growth at 10 µM (K562): 44.1%; growth at 10 µM (SN12C): 99.4%; growth at 10 µM (OVCAR-5): 86.6%; growth at 10 µM (NCI-H460): 62%; growth at 10 µM (HCT-116): 75.5%; growth at 10 µM (MOLT-4): 36.5%; growth at 10 µM (T47D): 62.1%; growth at 10 µM (DU-145): 92.4%; growth at 10 µM (CCRF-CEM): 38.7%; inhibition in vivo at 20 mg/kg (Rattus norvegicus): 36.4%; growth at 10 µM (HOP-62): 78.1%
2 | Cc1cc(O)c(C2=NN(c3ccc(S(N)(=O)=O)cc3)C(c3ccc(Cl)cc3)C2)c(C)c1Cl (configuration not stated) | 90.2% | 78.3% | 79.6% | 88.8% | 97.6% | 85.7% | 25.5% | 51.1% | 78.7% | 52.7% | 91.1% | 75.2% | 80.3% | 24.1% | 107% | 157% | 82.8% | 88.6% | 58.8% | 82.5% | growth at 10 µM (UACC-62): 64.8%; growth at 10 µM (HOP-92): 45.5%; growth at 10 µM (HCC 2998): 94.1%; growth at 10 µM (K562): 25%; growth at 10 µM (SN12C): 74.8%; growth at 10 µM (OVCAR-5): 96.8%; growth at 10 µM (NCI-H460): 47.1%; growth at 10 µM (HCT-116): 41.1%; growth at 10 µM (MOLT-4): 27.3%; growth at 10 µM (T47D): 37%; growth at 10 µM (DU-145): 75.2%; growth at 10 µM (CCRF-CEM): 28%; inhibition in vivo at 20 mg/kg (Rattus norvegicus): 81.8%; growth at 10 µM (HOP-62): 107%
3 | Cc1cc(O)c(C2=NN(c3ccc(S(N)(=O)=O)cc3)C(c3ccc(N(C)C)cc3)C2)c(C)c1Cl (configuration not stated) | 76.3% | 70% | 81.7% | 106% | 74.1% | 80.3% | -37.6% | 49.7% | 67.4% | 55.1% | 43.7% | 5.73% | 68% | 18.4% | 89.8% | 103% | 52.4% | 58.7% | 58.9% | 71.2% | growth at 10 µM (UACC-62): 53%; growth at 10 µM (HOP-92): 21.3%; growth at 10 µM (HCC 2998): 66.5%; growth at 10 µM (K562): 21%; growth at 10 µM (SN12C): 36.1%; growth at 10 µM (OVCAR-5): 95.2%; growth at 10 µM (NCI-H460): 3.35%; growth at 10 µM (HCT-116): 55.1%; growth at 10 µM (MOLT-4): 14.3%; growth at 10 µM (T47D): 46.9%; growth at 10 µM (DU-145): 49.3%; growth at 10 µM (CCRF-CEM): 11.6%; inhibition in vivo at 20 mg/kg (Rattus norvegicus): 36.4%; growth at 10 µM (HOP-62): 84.3%
